According to patent US8999966B2, “Compounds that are ERK inhibitors” (Merck Sharp & Dohme Corp., priority 2010, dated 2015):

Target: fully phosphorylated, active Mouse ERK2 protein (Mus musculus, UniProt P63085)
Experiment: Active ERK2 assay (AERK2), IMAP format
Type: biochemical
Settings: activated ERK2, IMAP fluorescence polarization, 30 μM ATP
Procedure: 14 μl of kinase buffer (10 mM Tris.HCl pH 7.2, 10 mM MgCl2, 0.01% Tween-20, 1 mM DTT) containing 0.4 ng unphosphorylated Mouse ERK2 protein can be added to each well of a black 384-well assay plate. […] DMSO concentration during initial incubation is 6.7%. ERK2 activity can be determined to be insensitive to DMSO concentrations up to 20%. ERK2 can then be activated and it's kinase activity can be measured by the addition of 10 μl kinase buffer with the following components (final concentration per reaction): 2 ng active (phosphorylated) human MEK1 protein and 4 μM (total) ERK2 IMAP substrate peptides (3.9 μM unlabeled IPTTPITTTYFFFK-CONH2 and 100 nM IPTTPITTTYFFFK(5-carboxyfluorescein)-CONH2) and 30 μM ATP. DMSO concentration during ERK activation can be 4%. After one hour, reactions can be terminated by addition of 60 μl IMAP detections beads in binding buffer (Molecular Devices). Binding can be allowed to equilibrate for 30 minutes before reading the plate on an LJL Analyst Fluorescence Polarization plate reader. […] Active compounds can be reconfirmed in an independent assay.
Activated ERK2 activity was also determined in the IMAP assay format using the procedure outlined above. 1 μl of 25× compound was added to 14 μl of kinase buffer containing 0.25 ng fully phosphorylated, active Mouse ERK2 protein. Following a 30 minute incubation, the reactions were initiated by addition of 10 μl of kinase buffer containing 1 μM ERK2 IMAP substrate peptide (0.9 μM unlabeled IPTTPITTTYFFFK-CONH2 and 100 nM IPTTPITTTYFFFK(5-carboxyfluorescein)-CONH2) and 30 μM ATP. Reactions proceeded for 30 minutes before termination by addition of 60 μl IMAP detection beads in binding buffer. Plates were read as above after 30 minute binding equilibration. Active compounds were reconfirmed in an independent assay.

Sequence of fully phosphorylated, active Mouse ERK2 protein (P63085 whole entry): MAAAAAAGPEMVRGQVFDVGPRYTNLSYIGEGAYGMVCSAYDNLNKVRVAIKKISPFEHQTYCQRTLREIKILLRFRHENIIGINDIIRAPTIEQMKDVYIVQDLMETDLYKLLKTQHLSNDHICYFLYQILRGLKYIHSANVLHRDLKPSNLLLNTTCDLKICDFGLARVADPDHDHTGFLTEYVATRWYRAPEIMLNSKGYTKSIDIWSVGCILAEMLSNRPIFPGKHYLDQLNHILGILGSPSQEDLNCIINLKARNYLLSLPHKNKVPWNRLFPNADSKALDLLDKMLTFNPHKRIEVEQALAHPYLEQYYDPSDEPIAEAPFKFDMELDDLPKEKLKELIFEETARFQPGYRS

IC50	SMILES
≥ 0.504 µM	Cc1n[nH]c2ccc(-c3n[nH]c4ccc(-n5cc([C@@H]6CCCN(Cc7c(F)cccc7F)C6)nn5)cc34)cc12 [Example 247, 5-[4-[1-[(2,6- DIFLUOROPHENYL)METHYL]- 3(R)-PIPERIDINYL]-1H- 1,2,3-TRIAZOL-1-YL]-3′- METHYL-3,5′-BI-1H- INDAZOLE]
≥ 0.504 µM	Fc1cccc(F)c1CN1CCC[C@@H](c2cn(-c3ccc4[nH]nc(-c5ccnc6[nH]ccc56)c4c3)nn2)C1 [Example 248, 5-[4-[1-[(2,6- DIFLUOROPHENYL)METHYL]- 3(R)-PIPERIDINYL]-1H- 1,2,3-TRIAZOL-1-YL]-3-(1H PYRROLO[2,3-b]PYRIDIN-4- YL)-1H-INDAZOLE]
0.0003 to 0.0104 µM	Fc1ccccc1CN1CCOC(c2cn(-c3ccc4[nH]nc(-c5ccncc5)c4c3)nn2)C1 (centres unmarked) [Example 249, 5-[4-[4-[(2- FLUOROPHENYL)METHYL]- 2-MORPHOLINYL]-1H-1,2,3- TRIAZOL-1-YL]-3-(4- PYRIDINYL)-1H-INDAZOLE]
0.0003 to 0.0104 µM	COc1cccc(F)c1CN1CCOC(c2cn(-c3ccc4[nH]nc(-c5ccncc5)c4c3)nn2)C1 (centres unmarked) [Example 251, 5-[4-[4-[(2-FLUORO-6- METHOXYPHENYL)METHYL]- 2-MORPHOLINYL]-1H- 1,2,3-TRIAZOL-1-YL]-3-(4- PYRIDINYL)-1H-INDAZOLE]
≥ 0.504 µM	COc1cccc(F)c1CN1CC=CC[C@@H]1c1nc(-c2ccc3[nH]nc(-c4ccc5c(c4)CCO5)c3c2)n[nH]1 [Example 253, 3-(2,3-DIHYDRO-5- BENZOFURANYL)-5-[5-[1-[(2- FLUORO-6- METHOXYPHENYL)METHYL]- 1,2,3,6-TETRAHYDRO- 2(R)-PYRIDINYL]-1H-1,2,4- TRIAZOL-3-YL]-1H- INDAZOLE]
≥ 0.504 µM	Fc1cccc(F)c1CN1CC=CC[C@@H]1c1nc(-c2ccc3[nH]nc(-c4ccc5c(c4)CCO5)c3c2)n[nH]1 [Example 254, 5-[5-[1-[(2,6- DIFLUOROPHENYL)METHYL]- 1,2,3,6-TETRAHYDRO- 2(R)-PYRIDINYL]-1H-1,2,4- TRIAZOL-3-YL]-3-(2,3- DIHYDRO-5- BENZOFURANYL)-1H- INDAZOLE]
≥ 0.504 µM	C1=CCN(Cc2cccs2)[C@@H](c2nc(-c3ccc4[nH]nc(-c5ccc6c(c5)CCO6)c4c3)n[nH]2)C1 [Example 255, 3-(2,3-DIHYDRO-5- BENZOFURANYL)-5-[5- [1,2,3,6-TETRAHYDRO-1-(2- THIENYLMETHYL)-2(R)- PYRIDINYL]-1H-1,2,4- TRIAZOL-3-YL]-1H- INDAZOLE]
≥ 0.504 µM	C1=CCN(Cc2ccon2)[C@@H](c2nc(-c3ccc4[nH]nc(-c5ccc6c(c5)CCO6)c4c3)n[nH]2)C1 [Example 256, 3-(2,3-DIHYDRO-5- BENZOFURANYL)-5-[5- [1,2,3,6-TETRAHYDRO-1-(3- ISOXAZOLYLMETHYL)-2(R)- PYRIDINYL]-1H-1,2,4- TRIAZOL-3-YL]-1H- INDAZOLE]
> 1 µM	COc1cccc(F)c1CN1CCCCC1c1nc(-c2ccc3[nH]nc(-c4ccc5c(c4)CCO5)c3c2)n[nH]1 (centres unmarked) [Example 258, 3-(2,3-DIHYDRO-5- BENZOFURANYL)-5-[5-[1-[(2- FLUORO-6- METHOXYPHENYL)METHYL]- 2-PIPERIDINYL]-1H-1,2,4- TRIAZOL-3-YL]-1H- INDAZOLE]
> 1 µM	COc1cccc(F)c1CN1CCCCC1c1nc(-c2ccc3[nH]nc(-c4ccc(OC(C)C)cc4)c3c2)n[nH]1 (centres unmarked) [Example 259, 5-[5-[1-[(2-FLUORO-6- METHOXYPHENYL)METHYL]- 2-PIPERIDINYL]-1H-1,2,4- TRIAZOL-3-YL]-3-[4-(1- METHYLETHOXY)PHENYL]- 1H-INDAZOLE]
≥ 0.504 µM	c1csc(CN2CCC[C@@H](c3nc(-c4ccc5[nH]nc(-c6ccc7c(c6)CCO7)c5c4)n[nH]3)C2)c1 [Example 298, 3-(2,3-DIHYDRO-5- BENZOFURANYL)-5-[5-[1-(2- THIENYLMETHYL)-3(R)- PIPERIDINYL]-1H-1,2,4- TRIAZOL-3-YL]-1H- INDAZOLE]
≥ 0.504 µM	CC(C)Oc1ccc(-c2n[nH]c3ccc(-c4n[nH]c([C@@H]5CCCN(Cc6c(F)cccc6F)C5)n4)cc23)cc1 [Example 299, 5-[5-[1-[(2,6- DIFLUOROPHENYL)METHYL]- 3(R)-PIPERIDINYL]-1H- 1,2,4-TRIAZOL-3-YL]-3-[4-(1- METHYLETHOXY)PHENYL]- 1H-INDAZOLE]
≥ 0.504 µM	CC1(C)Cc2cc(-c3n[nH]c4ccc(-c5n[nH]c([C@@H]6CCCN(Cc7c(F)cccc7F)C6)n5)cc34)ccc2O1 [Example 300, 5-[5-[1-[(2,6- DIFLUOROPHENYL)METHYL]- 3(R)-PIPERIDINYL]-1H- 1,2,4-TRIAZOL-3-YL]-3-(2,3- DIHYDRO-2,2-DIMETHYL-5- BENZOFURANYL)-1H- INDAZOLE]
≥ 0.504 µM	Fc1cccc(F)c1CN1CCC[C@@H](c2nc(-c3ccc4[nH]nc(-c5ccc(C(F)(F)F)cc5)c4c3)n[nH]2)C1 [Example 301, 5-[5-[1-[(2,6- DIFLUOROPHENYL)METHYL]- 3(R)-PIPERIDINYL]-1H- 1,2,4-TRIAZOL-3-YL]-3-[4- (TRIFLUOROMETHYL)PHEN- YL]-1H-INDAZOLE]
≥ 0.504 µM	Fc1cccc(F)c1CN1CCC[C@@H](c2nc(-c3ccc4[nH]nc(-c5ccnc(F)c5F)c4c3)n[nH]2)C1 [Example 302, 5-[5-[1-[(2,6- DIFLUOROPHENYL)METHYL]- 3(R)-PIPERIDINYL]-1H- 1,2,4-TRIAZOL-3-YL]-3-(2,3- DIFLUORO-4-PYRIDINYL)- 1H-INDAZOLE]
≥ 0.504 µM	Cc1noc(C)c1-c1n[nH]c2ccc(-c3n[nH]c([C@@H]4CCCN(Cc5c(F)cccc5F)C4)n3)cc12 [Example 303, 5-[5-[1-[(2,6- DIFLUOROPHENYL)METHYL]- 3(R)-PIPERIDINYL]-1H- 1,2,4-TRIAZOL-3-YL]-3-(3,5- DIMETHYL-4-ISOXAZOLYL)- 1H-INDAZOLE]
≥ 0.504 µM	CC(C)Oc1ccc(-c2n[nH]c3ccc(-c4n[nH]c([C@@H]5CCCN(Cc6cccs6)C5)n4)cc23)cc1 [Example 304, 3-[4-(1- METHYLETHOXY)PHENYL]- 5-[5-[1-(2- THIENYLMETHYL)-3(R)- PIPERIDINYL]-1H-1,2,4- TRIAZOL-3-YL]-1H- INDAZOLE]
≥ 0.504 µM	CC(C)Sc1ccc(-c2n[nH]c3ccc(-c4n[nH]c([C@@H]5CCCN(Cc6c(F)cccc6F)C5)n4)cc23)cc1 [Example 305, 5-[5-[1-[(2,6- DIFLUOROPHENYL)METHYL]- 3(R)-PIPERIDINYL]-1H- 1,2,4-TRIAZOL-3-YL]-3-[4-[(1- METHYLETHYL)THIO]PHEN- YL]-1H-INDAZOLE]
0.0003 to 0.0104 µM	Fc1ccccc1CN1CCCC(c2nnc(-c3ccc4[nH]nc(-c5ccncc5)c4c3)o2)C1 (centres unmarked) [Example 306, 5-[5-[1-[(2- FLUOROPHENYL)METHYL]- 3-PIPERIDINYL]-1,3,4- OXADIAZOL-2-YL]-3-(4- PYRIDINYL)-1H-INDAZOLE]
> 1 µM	c1ccc(CN2CCCC(c3nnc(-c4ccc5[nH]nc(-c6ccc7c(c6)CCO7)c5c4)o3)C2)cc1 (centres unmarked) [Example 307, 3-(2,3-DIHYDRO-5- BENZOFURANYL)-5-[5-[1- (PHENYLMETHYL)-3- (PIPERIDINYL]-1,3,4- OXADIAZOL-2-YL]-1H- INDAZOLE]
> 1 µM	Clc1cc(-c2n[nH]c3ccc(-c4nnc(C5CCCN(Cc6ccccc6)C5)o4)cc23)ccn1 (centres unmarked) [Example 309, 3-(2-CHLORO-4-PYRIDINYL)- 5-[5-[1-(PHENYLMETHYL)-3- PIPERIDINYL]-1,3,4- OXADIAZOL-2-YL]-1H- INDAZOLE]
0.0003 to 0.0104 µM	COc1cccc(F)c1CN1CCC[C@@H](c2nnc(-c3ccc4[nH]nc(-c5ccc(O)c(NC(C)=O)c5)c4c3)o2)C1 [Example 314, N-[5-[5-[5-[1-[(2-FLUORO-6- METHOXYPHENYL)METHYL]- 3(R)-PIPERIDINYL]-1,3,4- OXADIAZOL-2-YL]-1H- INDAZOL-3-YL]-2- HYDROXYPHENYL] ACETAMIDE]
≥ 0.504 µM	CC(=O)Nc1cc(-c2n[nH]c3ccc(-c4nnc([C@@H]5CCCN(Cc6ccc7nccnc7c6)C5)o4)cc23)ccc1O [Example 316, N-[2-HYDROXY-5-[5-[5-[1-(6- QUINOXALINYLMETHYL)- 3(R)-PIPERIDINYL]-1,3,4- OXADIAZOL-2-YL]-1H- INDAZOL-3- YL]PHENYL]ACETAMIDE]
> 1 µM	Cn1cc2cc(-c3n[nH]c4ccc(-c5nnc([C@@H]6CCCN(Cc7cc8ccccc8n7C)C6)o5)cc34)ccc2n1 [Example 321, 3-(2-METHYL-2H-INDAZOL- 5-YL)-5-[5-[1-[(1-METHYL- 1H-INDOL-2-YL)METHYL]- 3(R)-PIPERIDINYL]-1,3,4- OXADIAZOL-2-YL]-1H- INDAZOLE]
0.0003 to 0.0104 µM	COc1cccc(F)c1CN1CCC[C@@H](c2nnc(-c3ccc4[nH]nc(-c5ccc6nn(C)cc6c5)c4c3)o2)C1 [Example 322, 5-[5-[1-[(2-FLUORO-6- METHOXYPHENYL)METHYL]- 3(R)-PIPERIDINYL]-1,3,4- OXADIAZOL-2-YL]-3-(2- METHYL-2H-INDAZOL-5- YL)-1H-INDAZOLE]
> 1 µM	Cn1cc(CN2CCC[C@@H](c3nnc(-c4ccc5[nH]nc(-c6ccc7nccn7c6)c5c4)o3)C2)c2ccccc21 [Example 328, 3-IMIDAZO[1,2-a]PYRIDIN-6- YL-5-[5-[1-[(1-METHYL-1H- INDOL-3-YL)METHYL]-3(R)- PIPERIDINYL]-1,3,4- OXADIAZOL-2-YL]-1H- INDAZOLE]
